The source of these data is patent US20100286079A1, “COMPOSITION COMPRISING COVALENT CONJUGATES OF CHITOSAN AND AN ACIDIC DRUG AND PARENTERAL ADMINISTRATION” (priority 2007, published 2010).

For series [1] the following is noted: single 200-mg oral dose, fasting subjects; cited from earlier work.
A short description of series [2]: Solubility in water / aqueous solution. The conditions noted are these: as observed during preparation.

For `CC(C)Cc1ccc(C(C)C(=O)O)cc1` (centres unmarked) [Ibuprofen], in series [1], the “time of peak plasma levels after administration” value was “about 1 hr”.

With `CC(=O)O.CC(C)Cc1ccc(C(C)C(=O)O)cc1` (centres unmarked) [Ibuprofen ethanoate], the “solubility in aqueous medium” value in series [2] is given as “insoluble”.
